{
  "source": "patent US5359076A",
  "about": "“Cyclic aminophenylacetic acid derivatives, process for preparing the same and immune response modulator having the same as an effective ingredient” (Kyorin Pharmaceutical Co., Ltd., priority 1991, dated 1994)",
  "key": {"vascular permeability": {"test_system": "vascular permeability", "experiment": "Inhibitory effect on vascular permeability (acetic acid, Evans Blue, mice)", "assay_type": "in vivo, male ddY-strain mice", "conditions": "100 mg/kg, p.o.", "protocol": "Male ddY-strain mice were orally administered with the compound of examples in 5% arabic gum suspension. After 45 minutes, 1% Evans Blue dissolved in saline (0.1 ml/10 g body weight) was injected into tail vein, and immediately, 1% of acetic acid diluted in saline (0.1 ml/10 g body weight) was injected into peritoneal cavity. Thirty minutes later, each mouse was sacrificed and peritoneal cavity was washed with saline (2 ml/10 g body weight). Peritoneal exuded fluid was collected and centrifuged at 3,000 rpm for 10 minutes. The optical density of supernatant was read at 630 nm. The volume of Evans Blue was determined from the calibration curve and the inhibition ratio was calculated."}, "adjuvant arthritis": {"test_system": "adjuvant arthritis", "experiment": "Therapeutic effect on the adjuvant arthritis in rats (swelling of non-injected hind paw)", "assay_type": "in vivo, female SD-strain rats", "conditions": "oral", "protocol": "Heat-killed Mycobacterium butyricum (0.6 mg/rat) suspended in liquid paraffin was injected intradermally into right hind paw of female SD-strain rats. Test compounds suspended in 0.3% CMC solution were administered orally once a day for 7 days from 14 days to 20 days after the injection of adjuvant. The swelling of non-injected hind paw was measured by the water displacement method."}, "[1]": {"test_system": "IgM antibody-producing cells", "experiment": "Effect on IgM antibody-producing cells in vivo (Jerne method)", "set-up": "species or system BALB/c-strain mice", "conditions": "12.5 mg/kg/day, oral 4 days, n 7", "protocol": "To a BALB/c-strain mice were intraperitoneally injected with 5×10^8 /0.1 ml of sheep erythrocytes. The test compound was administered orally once a day for 4 days since the erythrocyte injection. On the next day of final administration, the spleen cells were isolated by finely mincing the spleen, centrifuged and suspended in medium (RPMI-1640+10% FCS). The number of IgM antibody-producing cells was counted by Jerne method."}, "[2]": {"test_system": "IgM antibody-producing cells", "experiment": "Effect on IgM antibody-producing cells in vitro (Jerne method)", "assay_type": "cell-based, BDF1-strain mice", "conditions": "n 6; for IgM-PFC/culture (mean ± S.E.): reference 82 ± 15, *p < 0.01 (Dunnett's test)", "protocol": "The spleen cells of BDF1 -strain mice were isolated by finely mincing the spleen, centrifuged, and suspended in medium (RPMI-1640+10% FCS). Each 50 μl of spleen cell suspension (2×10^7 cells/ml) and sheep erythrocyte suspension (1×10^7 cells/ml) was spread on a 96-well plate. Test compounds were dissolved in DMSO and diluted in medium. Then, 100 μl of medium containing test compounds were added to the 96-well plate. After the plate was incubated at 37° C. for 5 days in 5% CO2 incubator, the number of IgM antibody-producing cells was counted by Jerne method."}, "[3]": {"conditions": "25 mg/kg/day, 18 Days after adjuvant"}, "[4]": {"conditions": "25 mg/kg/day, 21 Days after adjuvant"}, "[5]": {"conditions": "25 mg/kg/day, 27 Days after adjuvant"}, "[6]": {"conditions": "50 mg/kg/day, 18 Days after adjuvant"}, "[7]": {"conditions": "50 mg/kg/day, 21 Days after adjuvant"}, "[8]": {"conditions": "50 mg/kg/day, 27 Days after adjuvant"}},
  "note": "Structures can show the parent of a compound that is named as a salt.",
  "data": [
    {"compound": "CCOC(=O)Cc1cc(Cl)c2c(c1)CCC(c1ccccc1F)N2", "note": "(stereo not drawn) [Example 4, Ethyl 8-chloro-2-(2-fluorophenyl)-1,2,3,4-tetrahydroquinoline-6-acetate]", "values": [
      {"measurement": "Inhibition ratio (vascular permeability)", "setting": "vascular permeability", "result": 33.1, "unit": "%"}
    ]},
    {"compound": "O=C(O)Cc1cc(Cl)c2c(c1)CCC(c1ccccc1F)N2", "note": "(stereo not drawn) [Example 7, 8-Chloro-2-(2-fluorophenyl)-1,2,3,4-tetrahydroquinoline-6-acetic acid]", "values": [
      {"measurement": "Inhibition ratio of swelling", "setting": "adjuvant arthritis; [3]", "result": 6, "unit": "%"},
      {"measurement": "Inhibition ratio of swelling", "setting": "adjuvant arthritis; [4]", "result": 19, "unit": "%"},
      {"measurement": "Inhibition ratio of swelling", "setting": "adjuvant arthritis; [5]", "result": 33, "unit": "%"},
      {"measurement": "Inhibition ratio of swelling", "setting": "adjuvant arthritis; [6]", "result": 36, "unit": "%"},
      {"measurement": "Inhibition ratio of swelling", "setting": "adjuvant arthritis; [7]", "result": 52, "unit": "%"},
      {"measurement": "Inhibition ratio of swelling", "setting": "adjuvant arthritis; [8]", "result": 50, "unit": "%"},
      {"measurement": "Inhibition ratio of swelling", "setting": "adjuvant arthritis; 100 mg/kg/day, 18 Days after adjuvant", "result": 59, "unit": "%"},
      {"measurement": "Inhibition ratio of swelling", "setting": "adjuvant arthritis; 100 mg/kg/day, 21 Days after adjuvant", "result": 64, "unit": "%"},
      {"measurement": "Inhibition ratio of swelling", "setting": "adjuvant arthritis; 100 mg/kg/day, 27 Days after adjuvant", "result": 64, "unit": "%"},
      {"measurement": "Inhibition ratio (vascular permeability)", "setting": "vascular permeability", "result": 51.1, "unit": "%"}
    ]},
    {"compound": "O=C(O)Cc1cc(Cl)c2c(c1)CCC(c1ccccc1)N2", "note": "(stereo not drawn) [Example 8, 8-Chloro-2-phenyl-1,2,3,4-tetrahydroquinoline-6-acetic acid]", "values": [
      {"measurement": "Inhibition ratio (vascular permeability)", "setting": "vascular permeability", "result": 50.0, "unit": "%"}
    ]},
    {"compound": "COc1ccc(C2CCc3cc(CC(=O)O)cc(Cl)c3N2)cc1", "note": "(stereo not drawn) [Example 9, 8-Chloro-2-(4-methoxyphenyl)-1,2,3,4-tetrahydroquinoline-6-acetic acid]", "values": [
      {"measurement": "Inhibition ratio (vascular permeability)", "setting": "vascular permeability", "result": 16.0, "unit": "%"}
    ]},
    {"compound": "CN1c2ccc(CC(=O)O)cc2CCC1c1ccccc1", "note": "(stereo not drawn) [Example 11, 1-Methyl-2-phenyl-1,2,3,4-tetrahydroquinoline-6-acetic acid]", "values": [
      {"measurement": "Inhibition ratio (vascular permeability)", "setting": "vascular permeability", "result": 42.7, "unit": "%"}
    ]},
    {"compound": "CN1c2c(Cl)cc(CC(=O)O)cc2CCC1c1ccccc1", "note": "(stereo not drawn) [Example 12, 8-Chloro-1-methyl-2-phenyl-1,2,3,4-tetrahydroquinoline-6-acetic acid]", "values": [
      {"measurement": "Inhibition ratio (vascular permeability)", "setting": "vascular permeability", "result": 52.7, "unit": "%"}
    ]},
    {"compound": "O=C(O)Cc1cc(Cl)c2c(c1)CCC(C(F)(F)F)N2", "note": "(stereo not drawn) [Example 15, 8-Chloro-1,2,3,4-tetrahydro-2-trifluoromethylquinoline-6-acetic acid]", "values": [
      {"measurement": "Inhibition ratio of swelling", "setting": "adjuvant arthritis; 12.5 mg/kg/day, 18 Days after adjuvant", "result": 21, "unit": "%"},
      {"measurement": "Inhibition ratio of swelling", "setting": "adjuvant arthritis; 12.5 mg/kg/day, 21 Days after adjuvant", "result": 36, "unit": "%"},
      {"measurement": "Inhibition ratio of swelling", "setting": "adjuvant arthritis; 12.5 mg/kg/day, 27 Days after adjuvant", "result": 50, "unit": "%"},
      {"measurement": "Inhibition ratio of swelling", "setting": "adjuvant arthritis; [3]", "result": 39, "unit": "%"},
      {"measurement": "Inhibition ratio of swelling", "setting": "adjuvant arthritis; [4]", "result": 45, "unit": "%"},
      {"measurement": "Inhibition ratio of swelling", "setting": "adjuvant arthritis; [5]", "result": 52, "unit": "%"},
      {"measurement": "Inhibition ratio of swelling", "setting": "adjuvant arthritis; [6]", "result": 39, "unit": "%"},
      {"measurement": "Inhibition ratio of swelling", "setting": "adjuvant arthritis; [7]", "result": 56, "unit": "%"},
      {"measurement": "Inhibition ratio of swelling", "setting": "adjuvant arthritis; [8]", "result": 58, "unit": "%"},
      {"measurement": "Inhibition ratio (IgM-PFC in vivo)", "setting": "[1]", "result": 35, "unit": "%"},
      {"measurement": "IgM-PFC/spleen (× 10^2) (mean ± S.E.)", "setting": "[1]; reference 995 ± 55, *p < 0.05 (Dunnett's test)", "result": "651 ± 49 IgM-PFC/spleen (× 10^2)"},
      {"measurement": "Inhibition ratio (vascular permeability)", "setting": "vascular permeability", "result": 29.1, "unit": "%"},
      {"measurement": "IgM-PFC/culture (mean ± S.E.)", "setting": "[2]; 2 × 10^-6 M", "result": "24 ± 3", "unit": "IgM-PFC/culture"},
      {"measurement": "IgM-PFC/culture (mean ± S.E.)", "setting": "[2]; 5 × 10^-5 M", "result": "31 ± 9", "unit": "IgM-PFC/culture"},
      {"measurement": "inhibition at 2 µM", "setting": "[2]; Mus musculus, 120 h, 2 × 10^-6 M, read-out: Inhibition ratio (IgM-PFC in vitro)", "result": 71, "unit": "%"},
      {"measurement": "inhibition at 50 µM", "setting": "[2]; Mus musculus, 120 h, 5 × 10^-5 M, read-out: Inhibition ratio (IgM-PFC in vitro)", "result": 62, "unit": "%"}
    ]},
    {"compound": "O=C(O)Cc1ccc2c(c1)CCC(C(F)(F)F)N2", "note": "(stereo not drawn) [Example 16, 1,2,3,4-Tetrahydro-2-trifluoromethylquinoline-6-acetic acid]", "values": [
      {"measurement": "Inhibition ratio (vascular permeability)", "setting": "vascular permeability", "result": 37.3, "unit": "%"}
    ]},
    {"compound": "O=C(O)Cc1cc(Br)c2c(c1)CCC(C(F)(F)F)N2", "note": "(stereo not drawn) [Example 23, 8-Bromo-1,2,3,4-tetrahydro-2-trifluoromethylquinoline-6-acetic acid]", "values": [
      {"measurement": "Inhibition ratio (vascular permeability)", "setting": "vascular permeability", "result": 38.6, "unit": "%"}
    ]},
    {"compound": "N#Cc1cc(CC(=O)O)cc2c1NC(C(F)(F)F)CC2", "note": "(stereo not drawn) [Example 24, 8-Cyano-1,2,3,4-tetrahydro-2-trifluoromethylquinoline-6-acetic acid]", "values": [
      {"measurement": "Inhibition ratio (vascular permeability)", "setting": "vascular permeability", "result": 25.9, "unit": "%"}
    ]},
    {"compound": "O=C(O)Cc1cc2c(c(-c3ccccc3)c1)NC(C(F)(F)F)CC2", "note": "(stereo not drawn) [Example 27, 8-Phenyl-1,2,3,4-tetrahydro-2-trifluoromethylquinoline-6-acetic acid]", "values": [
      {"measurement": "Inhibition ratio (vascular permeability)", "setting": "vascular permeability", "result": 27.0, "unit": "%"}
    ]},
    {"compound": "CC(=O)c1cc(CC(=O)O)cc2c1NC(C(F)(F)F)CC2", "note": "(stereo not drawn) [Example 28, 8-Acetyl-1,2,3,4-tetrahydro-2-trifluoromethylquinoline-6-acetic acid]", "values": [
      {"measurement": "Inhibition ratio (vascular permeability)", "setting": "vascular permeability", "result": 16.7, "unit": "%"}
    ]},
    {"compound": "CSc1cc(CC(=O)O)cc2c1NC(C(F)(F)F)CC2", "note": "(stereo not drawn) [Example 29, 8-Methylthio-1,2,3,4-tetrahydro-2-trifluoromethylquinoline-6-acetic acid]", "values": [
      {"measurement": "Inhibition ratio (vascular permeability)", "setting": "vascular permeability", "result": 18.4, "unit": "%"}
    ]},
    {"compound": "O=C(O)Cc1cc2c(c(C(=O)c3ccccc3)c1)NC(C(F)(F)F)CC2", "note": "(stereo not drawn) [Example 32, Sodium salt of 8-benzoyl-1,2,3,4-tetrahydro-2-trifluoromethylquinoline-6-acetic acid]", "values": [
      {"measurement": "Inhibition ratio (vascular permeability)", "setting": "vascular permeability", "result": 19.7, "unit": "%"}
    ]},
    {"compound": "O=C(O)Cc1cc2c(c([N+](=O)[O-])c1)NC(C(F)(F)F)CC2", "note": "(stereo not drawn) [Example 33, 8-Nitro-1,2,3,4-tetrahydro-2-trifluoromethylquinoline-6-acetic acid]", "values": [
      {"measurement": "Inhibition ratio (vascular permeability)", "setting": "vascular permeability", "result": 25.4, "unit": "%"}
    ]}
  ]
}
